Laboratory results: US12404284B2, “Spirocyclic inhibitors of hepatitis B virus” (Ospedale San Raffaele S.r.l., priority 2020, dated 2025)

What was measured:
[1] = test system: HBV; assay: Anti-HBV activity in vitro: extracellular HBV DNA by direct qPCR in HepAD38 cells; assay type: cell-based; conditions: Hepatitis B virus, doxycycline-free medium, 96 hours, read-out: HBV inh EC50
From the text: HepAD38 cell line (Ladner et al., Antimicrob Agents Chemother, 1997, 41, 1715-20) was used for HBV inhibition assays. HepAD38 is a subclone, derived from hepatoblastoma cell line HepG2 (ATCC® Number: HB-8065™), that expresses HBV genome under the transcriptional control of a tetracycline-responsive promoter in a TET-OFF system: addition of doxycycline, an antibiotic belonging to the class of tetracycline, suppresses HBV replication, while its removal switches on the process allowing HBV viral particles release in the cell supernatant. […]
Anti-HBV activity in vitro HBV inhibition activity in vitro was performed in 96 multiwell plates. […] From the dose-response curves, half maximal effective concentration (EC50) could be calculated (see also below). […]
Plates were then incubated 96 hours at 37° C. and then subjected to cell viability assays and extracellular HBV quantification, in order to evaluate both the cytotoxic potential and the anti-viral activity of compounds. Cytotoxicity was assessed by a commercial fluorescence assay that measures the metabolic activity of cells, directly related to cell viability (Cell Titer Blue, Promega). Anti-HBV activity was evaluated by quantification of extracellular HBV DNA with direct qPCR. […]

[2] = test system: HBV; conditions: Phase 1b clinical studies; cited from earlier work

| SMILES | EC50 [1] [nM] | reduction in HBV DNA [2] | reduction in serum HBV RNA [2] |
| --- | --- | --- | --- |
| Cn1cc2c(c1C(=O)Nc1ccc(F)c(Cl)c1)OC[C@@]1(CCN(C(=O)C(=O)NCC(F)(F)F)C1)NS2(=O)=O [Example E25, (S)—N-(3-chloro-4-fluorophenyl)-7′-methyl-1-(2-oxo-2-((2,2,2-trifluoroethyl)amino)acetyl)-2′H,4′H,7′H-spiro[pyrrolidine-3,3′-pyrrolo[3,4-b][1,4,5]oxathiazepine]-6′-carboxamide 1′,1′-dioxide] | < 500 |  |  |
| C[C@@H](NC(=O)C(=O)N1CCC2(CC1)COc1c(c(Cl)n(C)c1C(=O)Nc1ccc(F)c(C(F)F)c1)S(=O)(=O)N2)C(F)(F)F [Example E35, (R)-8′-chloro-N-(3-(difluoromethyl)-4-fluorophenyl)-7′-methyl-1-(2-oxo-2-((1,1,1-trifluoropropan-2-yl)amino)acetyl)-2′H,4′H,7′H-spiro[piperidine-4,3′-pyrrolo[3,4-b][1,4,5]oxathiazepine]-6′-carboxamide 1′,1′-dioxide] | < 500 |  |  |
| O=C(Nc1cc(F)c(F)c(F)c1)c1ccc(F)c(S(=O)(=O)N2CCC(O)CC2)c1 [NVR3-778] |  | significant reduction | significant reduction |
